The source of these data is ChEMBL document CHEMBL1128860, “5-O-Carboxymethyl piperazide derivatives of serotonin: a new class of potent and selective 5-HT1D receptor agonists” (Bioorg Med Chem Lett, 1995).

The structures appear in SMILES notation.

For experiment [1], the target named is T1, 5-hydroxytryptamine receptor 4 (Homo sapiens, UniProt Q13639). The experiment in a line: Compound was tested for its affinity towards 5-hydroxy tryptamine 4 receptor.
A further experiment concerns the target D(2) dopamine receptor (Homo sapiens, UniProt P14416). As to the kind of experiment: Compound was tested for its affinity towards dopaminergic (D2) receptor.
For experiment [2], the target named is T2, 5-hydroxytryptamine receptor 2C (Homo sapiens, UniProt P28335).
T2 sequence (P28335 whole entry): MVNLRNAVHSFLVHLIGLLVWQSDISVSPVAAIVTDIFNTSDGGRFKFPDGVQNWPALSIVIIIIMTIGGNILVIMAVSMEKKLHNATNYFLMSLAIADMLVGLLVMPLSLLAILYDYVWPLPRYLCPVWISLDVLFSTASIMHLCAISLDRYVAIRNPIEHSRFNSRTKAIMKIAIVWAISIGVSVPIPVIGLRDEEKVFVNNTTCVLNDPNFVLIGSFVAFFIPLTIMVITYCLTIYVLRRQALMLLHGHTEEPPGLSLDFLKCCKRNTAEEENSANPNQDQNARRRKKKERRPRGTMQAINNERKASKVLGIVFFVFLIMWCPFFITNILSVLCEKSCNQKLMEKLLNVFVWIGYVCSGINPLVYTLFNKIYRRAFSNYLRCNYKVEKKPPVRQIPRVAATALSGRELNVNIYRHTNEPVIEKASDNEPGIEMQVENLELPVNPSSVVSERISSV
The experiment in a line: (§1) Compound was tested for its affinity towards 5-hydroxytryptamine 1C receptor.

The target of experiment [3] is T3, 5-hydroxytryptamine receptor 3A (Homo sapiens, UniProt P46098).
T3 sequence (P46098 whole entry): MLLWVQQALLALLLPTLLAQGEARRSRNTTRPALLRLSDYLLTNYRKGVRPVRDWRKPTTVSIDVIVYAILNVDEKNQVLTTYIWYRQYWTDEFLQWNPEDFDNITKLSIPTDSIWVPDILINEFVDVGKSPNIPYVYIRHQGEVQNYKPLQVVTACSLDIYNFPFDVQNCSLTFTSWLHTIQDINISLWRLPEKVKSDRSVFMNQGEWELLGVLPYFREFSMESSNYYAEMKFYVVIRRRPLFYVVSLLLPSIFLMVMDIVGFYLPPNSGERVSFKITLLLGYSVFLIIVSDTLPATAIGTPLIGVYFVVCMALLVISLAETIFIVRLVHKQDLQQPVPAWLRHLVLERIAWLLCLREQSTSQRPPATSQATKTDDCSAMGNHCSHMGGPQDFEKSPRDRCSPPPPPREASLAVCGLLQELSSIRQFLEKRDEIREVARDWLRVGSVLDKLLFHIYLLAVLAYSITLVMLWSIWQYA
The experiment in a line: (§2) Compound was tested for its affinity towards 5-hydroxytryptamine 3 receptor.

The next experiment concerns the target Histamine H1 receptor (Homo sapiens, UniProt P35367). The experiment in a line: Compound was tested for its affinity towards histaminergic (H 1) receptor.
Experiment [4] deals with T4, Adrenergic receptor alpha-1 (Homo sapiens, UniProt P35348+P25100+P35368).
T4 sequence (P35348 whole entry): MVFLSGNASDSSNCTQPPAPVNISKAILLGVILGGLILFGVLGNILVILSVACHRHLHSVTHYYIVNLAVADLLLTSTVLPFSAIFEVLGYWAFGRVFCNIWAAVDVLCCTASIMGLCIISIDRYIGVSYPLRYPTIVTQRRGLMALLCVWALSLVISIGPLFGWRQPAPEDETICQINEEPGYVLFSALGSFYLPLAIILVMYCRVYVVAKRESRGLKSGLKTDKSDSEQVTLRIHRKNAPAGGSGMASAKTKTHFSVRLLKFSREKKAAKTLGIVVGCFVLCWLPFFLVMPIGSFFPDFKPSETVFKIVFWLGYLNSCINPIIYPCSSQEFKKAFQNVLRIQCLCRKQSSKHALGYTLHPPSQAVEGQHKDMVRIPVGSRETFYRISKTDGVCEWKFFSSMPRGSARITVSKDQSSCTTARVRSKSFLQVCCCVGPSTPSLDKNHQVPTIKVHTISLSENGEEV
T4 sequence (P25100 whole entry): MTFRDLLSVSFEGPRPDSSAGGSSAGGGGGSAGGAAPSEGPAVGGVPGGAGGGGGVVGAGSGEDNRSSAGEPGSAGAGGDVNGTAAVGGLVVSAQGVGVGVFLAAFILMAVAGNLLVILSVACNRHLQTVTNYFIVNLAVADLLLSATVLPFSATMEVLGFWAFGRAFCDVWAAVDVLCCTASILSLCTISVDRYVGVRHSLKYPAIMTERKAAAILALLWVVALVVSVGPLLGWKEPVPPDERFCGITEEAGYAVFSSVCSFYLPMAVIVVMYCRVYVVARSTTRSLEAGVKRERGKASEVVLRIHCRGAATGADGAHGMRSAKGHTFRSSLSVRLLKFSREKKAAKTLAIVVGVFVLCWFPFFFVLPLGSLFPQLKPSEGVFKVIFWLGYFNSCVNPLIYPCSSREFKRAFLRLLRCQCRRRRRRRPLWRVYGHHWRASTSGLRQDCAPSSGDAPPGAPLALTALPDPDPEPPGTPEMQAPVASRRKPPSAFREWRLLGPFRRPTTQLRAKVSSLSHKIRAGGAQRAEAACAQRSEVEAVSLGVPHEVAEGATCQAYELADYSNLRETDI
T4 sequence (P35368 whole entry): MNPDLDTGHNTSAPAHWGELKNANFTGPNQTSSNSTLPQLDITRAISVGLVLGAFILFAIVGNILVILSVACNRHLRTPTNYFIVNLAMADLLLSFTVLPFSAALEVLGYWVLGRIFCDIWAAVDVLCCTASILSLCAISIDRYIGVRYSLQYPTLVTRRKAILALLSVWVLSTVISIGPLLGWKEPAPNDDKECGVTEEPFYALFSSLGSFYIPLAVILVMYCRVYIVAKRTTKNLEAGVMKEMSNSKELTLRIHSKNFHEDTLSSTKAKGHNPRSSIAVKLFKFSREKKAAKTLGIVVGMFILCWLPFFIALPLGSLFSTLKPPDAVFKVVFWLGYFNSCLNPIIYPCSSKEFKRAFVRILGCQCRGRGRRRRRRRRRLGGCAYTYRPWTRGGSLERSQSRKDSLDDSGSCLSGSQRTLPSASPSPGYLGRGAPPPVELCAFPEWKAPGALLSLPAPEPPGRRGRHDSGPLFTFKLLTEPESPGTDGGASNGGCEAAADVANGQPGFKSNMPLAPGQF
The experiment in a line: Compound was tested for its affinity towards Alpha-1 adrenergic receptor. In kind it is protein assay.

In experiment [5] the target is Serotonin 2 (5-HT2) receptor (Homo sapiens, UniProt P41595+P28223+P28335). The experiment in a line: Compound was tested for its affinity towards 5-hydroxytryptamine 2 receptor. The experiment is classed as protein assay.
Experiment [6] concerns the target T5, Muscarinic acetylcholine receptor M4 (Homo sapiens, UniProt P08173).
T5 sequence (P08173 whole entry): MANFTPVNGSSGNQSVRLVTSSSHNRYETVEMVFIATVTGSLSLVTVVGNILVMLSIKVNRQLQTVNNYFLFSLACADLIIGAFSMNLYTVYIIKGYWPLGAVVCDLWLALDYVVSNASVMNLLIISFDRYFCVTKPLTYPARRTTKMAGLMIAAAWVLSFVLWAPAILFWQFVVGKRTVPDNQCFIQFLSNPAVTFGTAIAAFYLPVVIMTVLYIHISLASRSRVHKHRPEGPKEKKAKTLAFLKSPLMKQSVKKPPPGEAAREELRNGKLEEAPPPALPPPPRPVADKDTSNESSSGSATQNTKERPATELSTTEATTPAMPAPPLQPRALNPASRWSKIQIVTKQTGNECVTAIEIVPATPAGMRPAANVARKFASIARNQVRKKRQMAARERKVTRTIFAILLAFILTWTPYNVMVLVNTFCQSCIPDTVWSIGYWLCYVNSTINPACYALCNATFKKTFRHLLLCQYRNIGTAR
The experiment in a line: Compound was tested for its affinity towards muscarinic (M) receptor.

The next experiment is filed under the species Oryctolagus cuniculus. The experiment in a line: Compound was tested for its ability to contract rabbit saphenous vein. In kind it is functional.
For experiment [7], the target named is 5-hydroxytryptamine receptor 1D (Cavia porcellus, UniProt Q60484). As to the kind of experiment: Binding affinity towards guinea pig 5-hydroxytryptamine 1D receptor was determined.
Experiment [8] has as its target T6, 5-hydroxytryptamine receptor 1A (Homo sapiens, UniProt P08908).
T6 sequence (P08908 whole entry): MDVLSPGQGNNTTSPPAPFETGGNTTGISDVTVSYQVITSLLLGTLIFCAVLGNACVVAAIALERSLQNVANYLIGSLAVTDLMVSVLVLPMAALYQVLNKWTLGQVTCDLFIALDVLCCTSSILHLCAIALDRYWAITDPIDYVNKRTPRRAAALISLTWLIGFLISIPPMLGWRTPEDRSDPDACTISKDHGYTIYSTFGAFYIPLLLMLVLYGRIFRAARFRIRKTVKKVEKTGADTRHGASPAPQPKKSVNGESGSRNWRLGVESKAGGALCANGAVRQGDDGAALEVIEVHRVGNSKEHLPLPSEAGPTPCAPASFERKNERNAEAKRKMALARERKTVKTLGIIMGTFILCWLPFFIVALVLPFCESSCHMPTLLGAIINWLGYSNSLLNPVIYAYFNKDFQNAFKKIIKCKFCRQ
The experiment in a line: Compound was tested for its ability to inhibit forskolin-stimulated activity of adenylate cyclase coupled to human 5-hydroxytryptamine 1A receptor in HeLa cells; value ranges from 95-320. In kind it is functional, cell-based.

Experiment [9] concerns the target T7, 5-hydroxytryptamine receptor 2C (Rattus norvegicus, UniProt P08909).
T7 sequence (P08909 whole entry): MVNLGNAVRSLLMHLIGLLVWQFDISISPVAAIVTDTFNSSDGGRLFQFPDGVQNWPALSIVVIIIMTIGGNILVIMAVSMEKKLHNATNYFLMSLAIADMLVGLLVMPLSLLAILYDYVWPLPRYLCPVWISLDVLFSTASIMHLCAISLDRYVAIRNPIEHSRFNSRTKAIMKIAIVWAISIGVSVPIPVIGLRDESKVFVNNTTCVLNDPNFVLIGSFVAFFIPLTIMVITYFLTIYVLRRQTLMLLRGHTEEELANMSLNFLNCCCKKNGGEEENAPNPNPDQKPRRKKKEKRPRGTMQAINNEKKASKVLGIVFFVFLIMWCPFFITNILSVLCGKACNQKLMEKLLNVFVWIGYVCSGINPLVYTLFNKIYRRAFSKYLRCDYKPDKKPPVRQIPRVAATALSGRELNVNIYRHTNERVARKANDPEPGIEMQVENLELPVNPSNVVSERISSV
The description is as §1.

The target of experiment [10] is 5-hydroxytryptamine receptor 1D (Homo sapiens, UniProt P28221). The experiment in a line: Binding affinity towards cloned human 5-hydroxytryptamine 1D receptor alpha was determined.
The target of experiment [11] is T1, 5-hydroxytryptamine receptor 4. The experiment in a line: Compound was tested for its affinity towards 5-hydroxytryptamine 4 receptor.
In experiment [12] the target is Serotonin 3 (5-HT3) receptor. Described as §2. The experiment is classed as protein-complex assay.
Experiment [13] deals with T6, 5-hydroxytryptamine receptor 1A. As to the kind of experiment: Binding affinity towards cloned human 5-hydroxytryptamine 1A receptor was determined.
Experiment [14] shares this target. The experiment in a line: Compound was tested for its ability to inhibit forskolin-stimulated activity of adenylate cyclase coupled to human 5-HT 1A receptor in HeLa cells; value ranges from 85-370. The experiment is classed as functional, cell-based.

Sequence of D(2) dopamine receptor (P14416 whole entry): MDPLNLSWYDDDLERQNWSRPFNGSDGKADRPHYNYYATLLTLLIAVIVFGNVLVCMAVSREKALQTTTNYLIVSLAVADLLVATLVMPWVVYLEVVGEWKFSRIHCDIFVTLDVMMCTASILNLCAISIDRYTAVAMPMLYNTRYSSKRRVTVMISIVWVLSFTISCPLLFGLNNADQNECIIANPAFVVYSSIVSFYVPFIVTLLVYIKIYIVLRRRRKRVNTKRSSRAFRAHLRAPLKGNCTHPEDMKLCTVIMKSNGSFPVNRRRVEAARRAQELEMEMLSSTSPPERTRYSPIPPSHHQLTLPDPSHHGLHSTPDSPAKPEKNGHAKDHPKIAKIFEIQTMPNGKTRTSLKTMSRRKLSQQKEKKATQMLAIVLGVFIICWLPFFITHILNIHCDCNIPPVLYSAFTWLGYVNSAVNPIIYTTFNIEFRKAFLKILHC
T1 sequence (Q13639 whole entry): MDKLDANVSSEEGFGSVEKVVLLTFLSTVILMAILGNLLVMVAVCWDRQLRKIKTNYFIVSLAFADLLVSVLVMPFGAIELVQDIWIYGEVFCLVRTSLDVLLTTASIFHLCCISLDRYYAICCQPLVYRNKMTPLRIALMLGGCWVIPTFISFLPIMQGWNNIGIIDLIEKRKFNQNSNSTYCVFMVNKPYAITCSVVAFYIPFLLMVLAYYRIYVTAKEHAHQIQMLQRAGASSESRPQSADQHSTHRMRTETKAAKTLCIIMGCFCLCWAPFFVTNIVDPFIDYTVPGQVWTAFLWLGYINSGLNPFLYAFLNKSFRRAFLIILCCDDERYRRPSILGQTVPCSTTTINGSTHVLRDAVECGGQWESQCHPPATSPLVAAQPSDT
Sequence of 5-hydroxytryptamine receptor 1D (Homo sapiens, UniProt P28221) (P28221 whole entry): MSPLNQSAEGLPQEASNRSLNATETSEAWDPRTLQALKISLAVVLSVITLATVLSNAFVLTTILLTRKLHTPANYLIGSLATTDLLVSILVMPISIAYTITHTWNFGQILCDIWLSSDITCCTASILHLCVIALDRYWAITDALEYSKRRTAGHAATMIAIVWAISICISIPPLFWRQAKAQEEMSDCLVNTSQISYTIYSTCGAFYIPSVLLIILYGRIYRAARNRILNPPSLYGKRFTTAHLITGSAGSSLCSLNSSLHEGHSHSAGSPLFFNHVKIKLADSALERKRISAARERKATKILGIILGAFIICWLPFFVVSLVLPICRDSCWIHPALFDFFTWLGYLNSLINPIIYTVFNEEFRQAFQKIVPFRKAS
Sequence of Histamine H1 receptor (P35367 whole entry): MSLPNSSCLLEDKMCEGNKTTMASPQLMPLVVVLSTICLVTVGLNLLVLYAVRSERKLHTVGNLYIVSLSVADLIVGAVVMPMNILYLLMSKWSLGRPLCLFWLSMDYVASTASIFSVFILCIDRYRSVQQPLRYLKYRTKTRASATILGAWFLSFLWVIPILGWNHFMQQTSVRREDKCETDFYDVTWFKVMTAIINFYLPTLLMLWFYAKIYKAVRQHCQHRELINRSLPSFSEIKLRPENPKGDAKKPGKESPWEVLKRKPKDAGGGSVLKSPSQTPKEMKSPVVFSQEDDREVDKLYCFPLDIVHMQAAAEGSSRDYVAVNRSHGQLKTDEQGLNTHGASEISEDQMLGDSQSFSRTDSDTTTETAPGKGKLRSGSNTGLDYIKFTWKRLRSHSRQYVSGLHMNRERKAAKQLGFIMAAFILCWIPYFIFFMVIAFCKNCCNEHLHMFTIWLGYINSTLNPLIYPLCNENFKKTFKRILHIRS
Sequence of 5-hydroxytryptamine receptor 1D (Cavia porcellus, UniProt Q60484) (Q60484 whole entry): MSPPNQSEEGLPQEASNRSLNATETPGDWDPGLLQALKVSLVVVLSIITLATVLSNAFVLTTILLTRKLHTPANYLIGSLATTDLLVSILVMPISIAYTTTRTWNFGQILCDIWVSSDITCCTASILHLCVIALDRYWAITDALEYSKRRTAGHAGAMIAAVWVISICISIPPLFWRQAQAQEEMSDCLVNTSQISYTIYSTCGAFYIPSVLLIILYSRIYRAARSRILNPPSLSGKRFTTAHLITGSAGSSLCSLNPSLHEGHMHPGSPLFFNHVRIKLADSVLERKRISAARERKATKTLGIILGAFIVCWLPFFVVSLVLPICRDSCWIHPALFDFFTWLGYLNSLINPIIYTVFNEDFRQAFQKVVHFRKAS

As usually defined, the IC50 is the point on the concentration scale where inhibition reaches its midpoint. A high value points to a need for much substance. Regarding `Cc1ccccc1N1CCN(C(=O)COc2ccc3[nH]cc(CCN)c3c2)CC1`, the IC50 (in [1]; on D(2) dopamine receptor; in experiment [2]; in experiment [3]; against Histamine H1 receptor; in experiment [4]) was more than 10000 nM each time. The IC50 in [5] and in experiment [6] was more than 10000 nM throughout.

In the experiment listed under Oryctolagus cuniculus, `CNS(=O)(=O)Cc1ccc2[nH]cc(CCN(C)C)c2c1` showed a pD2 of 5.75.

On to `NCCc1c[nH]c2ccc(OCC(=O)NCC(=O)N[C@@H](Cc3ccc(O)cc3)C(N)=O)cc12`, for which the IC50 in experiment [7] was 60 nM.

The term EC50 denotes the concentration that produces a half-maximal response. A lower EC50 goes with an effect from little substance. What is called Ki is the equilibrium dissociation constant of an inhibitor or competing ligand from its target. A higher Ki goes with lower affinity. `NCCc1c[nH]c2ccc(OCC(=O)N3CCN(c4cccc5ccccc45)CC3)cc12` showed an EC50 in [8] of 95 nM. The IC50 (against D(2) dopamine receptor; in experiment [9]; in [11]; on Histamine H1 receptor; in experiment [4]; in experiment [5]) was more than 1000 nM throughout. Besides, the IC50 in experiment [12] and in [6] was more than 1000 nM in each case. Also, the Ki in experiment [10] stood at 0.95 nM; in experiment [13] it was 8.9 nM.

Consider `COc1cccc(N2CCN(C(=O)COc3ccc4[nH]cc(CCN)c4c3)CC2)c1`, for which the figures for the Ki in experiment [10] and in experiment [13] were 2 nM and 9.8 nM, respectively. For the same molecule, in experiment [14], the EC50 stood at 85 nM.

Consider `NCCc1c[nH]c2ccc(OCC(=O)N3CCN(c4ccccc4)CC3)cc12`, for which, in the experiment filed under Oryctolagus cuniculus, the pD2 was 7.36.
